The numbers were not newly measured in patent US9199980B2, “Compounds” (CHIESI FARMACEUTICI S.p.A., priority 2012, dated 2015), which cites them from elsewhere.

For data set [1], the system named is COPD patients.
For data set [2], the system named is smoking model of COPD in mice.
[3] abbreviates: patients with severe disease, frequent exacerbations and mucus hypersecretion.

For the molecule `O=C(Nc1c(Cl)cncc1Cl)c1ccc(OC(F)F)c(OCC2CC2)c1` [roflumilast], in data set [1] (COPD patients, oral, given over 4 weeks), the “reduction of the numbers of neutrophils in sputum” value is reported as 36%. For the same molecule, in data set [1] (setting [3]), the “improvement of FEV 1” value is reported as “approximately 50 ml” and the reduction of exacerbation result was “about 15%”. Further, in data set [2], the “effect on lung inflammation and emphysema” value was “inhibits lung inflammation and emphysema”.
